Measurements taken from patent US20250136581A1, “SUBSTITUTED TRIAZOLE DERIVATIVE, PREPARATION METHOD THEREFOR, PHARMACEUTICAL COMPOSITION THEREOF, AND USE THEREOF” (SHANGHAI SIMR BIOTECHNOLOGY CO., LTD., priority 2021, published 2025).
Where two headings read alike, the source gives them in different places.

Tests used:
[1] = biological target: human α5β3γ2 receptors (α5-GABAA receptor) (Homo sapiens (Human), UniProt P18507+P31644); test: 3H-flunitrazepam competition binding, human α5β3γ2 GABAA receptor; settings: HEK293 cell membranes, 1 nM 3H-flunitrazepam
Method in brief: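 HEK293 membranes stably expressing each human receptor subtype ([…]) competed against 1 nM 3H-flunitrazepam in Tris buffer, 1 h at room temperature; flumazenil defined the low-signal control. Eight-point 4-fold test-compound dilutions; GF/C filtration and scintillation counting gave IC50 by curve fitting, converted to Ki.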

[2] = biological target: human α3β3γ2 receptors (Homo sapiens (Human), UniProt P18507+P34903); test: 3H-flunitrazepam competition binding, human α3β3γ2 GABAA receptor; settings: HEK293 cell membranes, 1 nM 3H-flunitrazepam; read-out: Ki α3
Experimental: (§1) The affinity of the compound to each subtype of GABAA receptor was determined by competing for the binding of ^3H-flunitrazepam to HEK293 cells stably expressing human α1β3γ2, α2β3γ2, α3β3γ2, and α5β3γ2 receptors.
(§2) The cells were suspended in 50 mM Tris-HCl buffer (pH=7.4), homogenized 10 times on ice with a homogenizer for 20 seconds, and centrifuged at 1000 g for 10 minutes at 4° C. The supernatant was collected, and the above steps were repeated. The supernatant was centrifuged at 4° C. (33800 g; Thermo, rotor: A27-8×50) for 60 minutes, and the precipitate was resuspended in Tris buffer (50 mM Tris-HCl, 10 mM MgCl2, 0.5 mM EDTA, 10% glycerol). Protein was measured (BCA method, Pierce), and 1 mL aliquots were prepared and stored at −80° C.
(§3) The radioligand competition binding assay was performed in a 200 μL system (96-well plate) containing 100 μL of cell membrane. The concentration of ^3H-flunitrazepam was 1 nM and the concentration of the test compound was in the range of […]. Flumazenil was used as a control. 1 μL of 2 mM flumazenil (final concentration […]) was added to the low signal control well (Low control, LC), and 1 μL of DMSO was added to the high signal control well (High control, HC). The final concentration of target membrane protein was […]. All test compound sample storage solutions were 10 mM. The working concentration of the samples was to dilute all the samples to 0.2 mM with DMSO, followed by 4-fold serial gradient dilutions for a total of 8 concentration gradients. The 96-well plate was sealed with a sealing film, and then incubated on a shaker at room temperature for 1 hour. At the same time, the GF/C filter plate was soaked in soaking buffer (0.3% PEI, stored at 4° C.) for at least 0.5 hours. After the binding incubation was completed, the cells were collected onto a GF/C filter plate using a cell harvester. The plate was washed four times with washing buffer (50 mM Tris-HCl, pH 7.4, stored at 4° C.). After drying in a 50° C. oven for 1 hour, the bottom of the dried GF/C filter plate was sealed. The residual radioactivity on the filter membrane was detected using liquid scintillation counting. 50 μL of scintillation fluid was added to each well, and the plate was sealed. The readings were taken using a Microbeta2. The inhibitory activity of the test sample on the binding of ^3H-flunitrazepam to GABAA receptor membrane proteins was calculated, and the IC50 of each test sample was calculated by dose-effect curve fitting (GraphPad Prism 5 software), and the Ki of the sample was calculated from the IC50, thus evaluating the binding ability of the sample to the various subtypes of GABAA receptors.

[3] = biological target: human α1β3γ2 receptors (Homo sapiens (Human), UniProt P14867+P18507); test: 3H-flunitrazepam competition binding, human α1β3γ2 GABAA receptor; settings: HEK293 cell membranes, 1 nM 3H-flunitrazepam; read-out: Ki α1
Experimental: as §1, §2, §3

[4] = biological target: α5-GABAA receptor (α5, β3, γ2 subunits) (Homo sapiens (Human), UniProt P18507+P31644); test: Whole cell patch clamp, inverse agonist efficacy in HEK293 cells expressing α5-GABAA receptor; format: cell-based; settings: GABA 0.05 μM, −60 mV; for inhibition at 0.1 µM: HEK293, drug 100 nM, read-out: Compound inverse agonist efficacy %
Method in brief: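 Stable HEK293 line co-expressing human α5, β3, γ2 subunits; whole-cell patch clamp at −60 mV, inward current evoked by 0.05 μM GABA, then compound at 100 nM in GABA solution applied. Effect derived from leak, pre- and post-drug GABA currents.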

[5] = biological target: human α2β3γ2 receptors (Homo sapiens (Human), UniProt P18507+P47869); test: 3H-flunitrazepam competition binding, human α2β3γ2 GABAA receptor; settings: HEK293 cell membranes, 1 nM 3H-flunitrazepam; read-out: Ki α2
Experimental: as §1, §2, §3

Compound	Ki ([1]; read-out: α5-GABAAR Ki) [µM]	Ki [2] [µM]	Ki [3] [µM]	Compound inverse agonist efficacy % ([4]; drug 100 nM) [%]	Ki [5] [µM]	inhibition at 0.1 µM [4] [%]	Ki ([1]; α5-GABAAR Ki) [µM]
Cc1nnn(-c2ccc(C(F)F)cc2)c1COc1ccc(N2CC(=O)NC(=O)C2)nn1 [Example 5, 4-(6-((1-(4-(Difluoromethyl)phenyl)-4-methyl-1H-1,2,3-triazol-5-yl)methoxy)pyridazin-3-yl)piperazine-2,6-dione]	0.00096	0.0168	0.0581	–	0.0129	54.5	–
Cc1nnn(-c2ccc(C(F)F)cc2)c1COc1ccc(N2CCOC2=O)nn1 [Example 23, 3-(6-((1-(4-(Difluoromethyl)phenyl)-4-methyl-1H-1,2,3-triazol-5-yl)methoxy)pyridazin-3-yl)oxazolidin-2-one]	0.00373	–	0.0219	–	0.0136	44.1	–
Cc1nnn(-c2ccc(C(F)F)cc2)c1COc1ccc(N2CCN(CCN3CCOCC3)C(=O)C2)nn1 [Example 95, 4-(6-((1-(4-(Difluoromethyl)phenyl)-4-methyl-1H-1,2,3-triazol-5-yl)methoxy)pyridazin-3-yl)-1-(2-morpholinoethyl)piperazin-2-one]	0.00067	–	0.00623	–	–	51.9	–
CC(=O)N1CCN(c2ccc(OCc3c(C)nnn3-c3ccc(C(F)F)cc3)nn2)CC1 [Example 171, 1-(4-(6-((1-(4-(Difluoromethyl)phenyl)-4-methyl-1H-1,2,3-triazol-5-yl)methoxy)pyridazin-3-yl)piperazin-1-yl)ethan-1-one]	0.00107	–	–	–	–	42	–
Cc1nnn(-c2ccc(C(F)F)cc2)c1COc1cnc(N2CCN3CCNC(=O)[C@@H]3C2)cn1 [Example 178, (S)-8-(5-((1-(4-(Difluoromethyl)phenyl)-4-methyl-1H-1,2,3-triazol-5-yl)methoxy)pyrazin-2-yl)hexahydro-2H-pyrazino[1,2-a]pyrazin-1(6H)-one]	0.0172	–	–	–	–	49.7	–
Cc1nnn(-c2ccc(C(F)F)cc2)c1COc1ccc(N2CC3COCCN3C2=O)nn1 (stereo not shown) [Example 180, 2-(6-((1-(4-(Difluoromethyl)phenyl)-4-methyl-1H-1,2,3-triazol-5-yl)methoxy)pyridazin-3-yl)hexahydro-3H-imidazo[5,1-c][1,4]oxazin-3-one]	0.00119	–	–	–	–	40.3	–
O=C1CN(c2ccc(OCc3c(Cl)nnn3-c3ccc(F)cc3)nn2)CCN1 [Example 189, 4-(6-((4-Chloro-1-(4-fluorophenyl)-1H-1,2,3-triazol-5-yl)methoxy)pyridazin-3-yl)piperazin-2-one]	0.00944	–	–	–	–	42.1	–
Cc1nnn(-c2ccc(C(F)F)cc2)c1COc1ccc(N2CCN3[C@@H]4CCC[C@@H]4NC(=O)[C@@H]3C2)nn1 [Example 197, (4aS,6aS,9aR)-3-(6-((1-(4-(Difluoromethyl)phenyl)-4-methyl-1H-1,2,3-triazol-5-yl)methoxy)pyridazin-3-yl)decahydrocyclopenta[e]pyrazino[1,2-a]pyrazin-5(1H)-one]	–	–	–	–	–	52.4	0.00495
Cc1nnn(-c2ccc(C(F)F)cc2)c1COc1ccc(N2CCN3[C@@H](C2)C(=O)N[C@@H]2CCC[C@@H]23)nn1 [Example 198, (4aS,6aR,9aS)-3-(6-((1-(4-(difluoromethyl)phenyl)-4-methyl-1H-1,2,3-triazol-5-yl)methoxy)pyridazin-3-yl)decahydrocyclopenta[e]pyrazino[1,2-a]pyrazin-5(1H)-one]	–	–	–	–	–	48.2	0.00313
Cc1nnn(-c2ccc(C(F)F)cc2)c1COc1ccc(N2CCN3C4CCCCC4NC(=O)[C@@H]3C2)nn1 (stereo partly drawn) [Example 199, (4aS)-3-(6-((1-(4-(Difluoromethyl)phenyl)-4-methyl-1H-1,2,3-triazol-5-yl)methoxy)pyridazin-3-yl)decahydro-1H-pyrazino[1,2-a]quinoxalin-5(6H)-one]	–	–	–	–	–	60.2	0.00317
Cc1nnn(-c2ccc(C(F)F)cc2)c1COc1ccc(N2CCN3CC(C(C)C)NC(=O)[C@@H]3C2)nn1 (stereo partly drawn) [Example 200, (9aS)-8-(6-((1-(4-(Difluoromethyl)phenyl)-4-methyl-1H-1,2,3-triazol-5-yl)methoxy)pyridazin-3-yl)-3-isopropylhexahydro-2H-pyrazino[1,2-a]pyrazin-1(6H)-one]	0.0019	–	–	–	–	60.1	–
Cc1nnn(-c2ccc(C(F)F)cc2)c1COc1ccc(N2CCN3C(C(C)C)CNC(=O)[C@@H]3C2)nn1 (stereo partly shown) [Example 207]	0.00492	–	–	–	–	51.9	–

Further compounds by falling Ki ([1]; read-out: α5-GABAAR Ki), results first:

Ki ([1]; read-out: α5-GABAAR Ki) [µM]	Ki [2] [µM]	Ki [3] [µM]	Compound inverse agonist efficacy % ([4]; drug 100 nM) [%]	Ki [5] [µM]	inhibition at 0.1 µM [4] [%]	Compound	Ki ([1]; α5-GABAAR Ki) [µM]
0.0264	–	–	–	–	43.6	Cc1nnn(-c2ccc(Cl)cc2)c1COc1ccc(N2CCN3CCNC(=O)[C@@H]3C2)nn1 [Example 163, (S)-8-(6-((1-(4-Chlorophenyl)-4-methyl-1H-1,2,3-triazol-5-yl)methoxy)pyridazin-3-yl)hexahydro-2H-pyrazino[1,2-a]pyrazin-1(6H)-one]	–
0.00772	–	0.0193	–	0.017	–	Cc1nnn(-c2ccc(C(F)F)cc2)c1COc1ccc(N2CCN(C)C2=O)nn1 [Example 24, 1-(6-((1-(4-(Difluoromethyl)phenyl)-4-methyl-1H-1,2,3-triazol-5-yl)methoxy)pyridazin-3-yl)-3-methylimidazolidin-2-one]	–
0.00284	–	–	–	–	42.4	Cc1nnn(-c2ccc(C(F)F)cc2F)c1COc1ccc(N2CCN3CCNC(=O)[C@@H]3C2)nn1 [Example 168, (S)-8-(6-((1-(4-(Difluoromethyl)-2-fluorophenyl)-4-methyl-1H-1,2,3-triazol-5-yl)methoxy)pyridazin-3-yl)hexahydro-2H-pyrazino[1,2-a]pyrazin-1(6H)-one]	–
0.00269	–	0.087	–	0.0386	48.4	Cc1nnn(-c2ccc(C(F)F)cc2)c1COc1ccc(N2CCN(C)C(=O)C2)cn1 [Example 22, 4-(6-((1-(4-(Difluoromethyl)phenyl)-4-methyl-1H-1,2,3-triazol-5-yl)methoxy)pyridin-3-yl)-1-methylpiperazin-2-one]	–
0.00231	0.0503	0.158	−68.71	0.0701	–	Cc1nnn(-c2ccc(C(F)F)cc2)c1COc1ccc(N2CCN3CC(C4CC4)NC(=O)[C@@H]3C2)nn1 (single isomer, unassigned) [Example 204]	–
0.00215	0.0286	0.145	–	0.0198	58.8	Cc1nnn(-c2ccc(C(F)F)cc2)c1COc1ccc(N2CCNC(=O)C2)nn1 [Example 2, 4-(6-((1-(4-(Difluoromethyl)phenyl)-4-methyl-1H-1,2,3-triazol-5-yl)methoxy)pyridazin-3-yl)piperazin-2-one]	–
0.001	0.017	0.122	–	0.0262	–	Cc1nnn(-c2ccc(C(F)F)cc2)c1COc1ccc(N2CC(=O)NC(C)(C)C2)nn1 [Example 7, 4-(6-((1-(4-(Difluoromethyl)phenyl)-4-methyl-1H-1,2,3-triazol-5-yl)methoxy)pyridazin-3-yl)-6,6-dimethylpiperazin-2-one]	–
